Patent US20170298056A1, “SMALL MOLECULE INHIBITORS OF HIV-1 ENTRY AND METHODS OF USE THEREOF” (Dana-Farber Cancer Institute, Inc., priority 2014, published 2017)

Key:
CCR5 = experiment: Binding of soluble gp120 to Cf2Th-CCR5 cells (flow cytometry); parameters: species or system human; details: absence and presence of soluble CD4
Method: Binding of soluble JR-FL gp120 to CCR5 was tested by incubating 1 million Cf2Th-CCR5 cells with 20 μg/mL purified gp120 in the presence or absence of 20 μg/mL sCD4 for 1 hour. After two washes, the cells were incubated with the 2G12 antibody followed by Allophycocyanin-conjugated F(ab′)2 fragment donkey anti-human IgG antibody to detect bound gp120. The cells were analyzed by FACS. All procedures were performed at room temperature.

[1] = tested on: cell-cell fusion mediated by HIV-1JR-FL and HIV-1ADS Envs; experiment: Cell-cell fusion assay; assay type: cell-based
Method: H-JRFL#1336 (effector) and H-Fluc4 (control) cells were grown in DMEM containing 10% FBS, 100 μg/ml streptomycin, 100 units/ml penicillin, 200 μg/ml G418, 1 μg/ml puromycin and 2 μg/ml doxycycline. H-JRFL#13 cells carry an HIV-1JR-FL env gene that is induced by growing the cells in the absence of doxycycline (Tet-Off expression system). H-Fluc4 cells, which carry a firefly luciferase gene that is induced in the absence of doxycycline, were used as specificity controls. Both cell lines were derived from HeLa cells and constitutively express the tetracycline-regulated transactivator (Tet-Off expression system). […]
H-JRFL#13 or H-FLuc4 cells were washed thrice, detached with StemPro Accutase, centrifuged at 200×g for 6 minutes at 10° C. and seeded in DMEM containing 10% tetracycline-approved FBS, 100 μg/ml streptomycin, 100 units/ml penicillin, 100 μg/ml G418, 1 μg/ml puromycin and without Phenol Red. […] Firefly luciferase activity was measured using an EnVision Multilabel Plate Reader (PerkinElmer, Boston, Mass.). […]
To identify new molecules that potentially affect HIV-1 entry, a cell-cell fusion assay that mimics the entry of HIV-1 into cells was established (FIG. 1a). The assay uses a firefly luciferase (F-luc) readout to measure the fusion of HeLa effector cells that express the Envs from a primary HIV-1 strain and target cells coexpressing the CD4 and CCR5 receptors. […]

[2] = tested on: cell-surface HIV-1JR-FL WTKA Env; experiment: Binding of 17b, 19b, 2G12, PGT121 antibodies to cell-surface Env (flow cytometry)
Method: Flow cytometry. […] After 48-72 hours, cells were detached with 5 mM EDTA/PBS and between 0.5-1 million cells were briefly incubated with various concentrations of 18A and then with or without the indicated concentrations of sCD4. C34-Ig (at a final concentration of 20 μg/ml) or a specified antibody (at final concentration of 1 μg/ml) was added to the cells. […] Cells were washed twice and analyzed with a BD FACSCanto II flow cytometer (BD Biosciences). For analysis of resistant mutants (FIG. 5e-g), the measurements were normalized for the level of sCD4 binding of each mutant, and the response of each mutant was further normalized to that of the wild-type HIV-1JR-FL E168K+N188AΔCT Env (herein designated WTKA). […] The sCD4 IC50/sCD4 binding ratio (FIGS. 4c and e) was calculated as follows. Binding of sCD4 to different envelope mutants was measured by flow cytometry and normalized first to 2G12 binding to account for potentially different Env expression levels, and then to sCD4 binding to the wild-type HIV-1JR-FL Env. The IC50 of sCD4 for inhibition of virus infection by each mutant Env was divided by the normalized sCD4 binding to Env-expressing cells to calculate the sCD4 IC50/sCD4 binding value.

Compound: O=C(N/N=C/c1ccc(O)cc1)Nc1cccc2nsnc12 [Compound 18A]
- effect on gp120 binding to CCR5 (CCR5): No effect
- cell-cell fusion [1]: specifically inhibited cell-cell fusion
- binding of 19b and 2G12, sCD4-induced decrease of PGT121 binding [2]: No significant effect
- 17b binding to cell surface-expressed Env trimer ([2]; in the presence of 18A, no sCD4): reduction in 17b binding
